Tests used:
zrt1zrt2 strain = experiment: Cell-associated zinc, zrt1zrt2 strain; format: cell-based, Saccharomyces cerevisiae
Experimental: (§1) Zinc uptake assays were performed as described previously for iron uptake (Eide et al. (1992) J. Biol. Chem. 267:20774-20781) except that ^65ZnCl2 (Amersham) and LZM-EDTA were substituted for ^59FeCI3 and LIM-EDTA, respectively. Cells were incubated for 5 minutes in LZM-EDTA plus the indicated concentration of ^65Zn, collected on glass fiber filters (Schleicher and Schuell), washed with 10 ml ice-cold SSW (1 mM EDTA, 20 mM trisodium citrate, 1 mM KH2PO4, 1 mM CaCl2, 5 mM MgSO4, 1 mM NaCl pH 4.2), and cell-associated radioactivity was measured by liquid scintillation counting. […] Michaelis-Menten kinetic values were determined using […] software (Intellikinetics, Princeton, N.J.). […] The statistical significance of the differences of values relative to controls was determined with one-way analysis of variance (ANOVA) followed by a Dunnett multiple comparison test. β-galactosidase activity was assayed in cells harvested at an OD600 of 0.5-2.0 as described by Guarente (Guarente, L. (1983) Methods Enzymol. 101:181-191) and activity is expressed as the change in absorbance at 420 nm×1000 divided by (min×ml of culture used×OD600 of the culture). Cell-associated zinc was measured in parallel cultures supplemented with tracer amounts of ^65Zn (10 μM) and nonradioactive zinc to the indicated final concentration. […]

ZIP1 = target: T1, ZIP1 (Arabidopsis thaliana, UniProt O81123); experiment: Zn uptake by ZHY3 containing the ZIP1 gene; format: cell-based; details: 5 minute time course using 10 mM Zn
T1 construct: expressed in transfected cells; host or cells: S. cerevisiae ZHY3 (zrt1::LEU2 zrt2::HIS3) with an Arabidopsis cDNA clone in pFL61
T1 sequence (O81123 29-355): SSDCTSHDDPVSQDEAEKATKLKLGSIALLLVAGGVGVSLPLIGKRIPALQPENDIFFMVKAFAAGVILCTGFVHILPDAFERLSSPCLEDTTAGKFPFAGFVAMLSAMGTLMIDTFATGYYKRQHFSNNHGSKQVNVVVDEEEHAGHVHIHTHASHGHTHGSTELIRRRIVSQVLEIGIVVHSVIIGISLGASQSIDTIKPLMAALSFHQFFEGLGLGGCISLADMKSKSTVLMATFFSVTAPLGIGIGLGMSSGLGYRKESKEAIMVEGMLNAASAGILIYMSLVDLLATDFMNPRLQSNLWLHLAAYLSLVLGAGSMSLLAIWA
Experimental: as §1

zrt1 strain = experiment: Cell-associated zinc, zrt1 strain; format: cell-based, Saccharomyces cerevisiae
Experimental: as §1

ZIP3 = target: T2, ZIP3 (Arabidopsis thaliana, UniProt Q9SLG3); experiment: Zn uptake by ZHY3 containing ZIP3; format: cell-based; details: ZIP3 containing ZHY3 cells, 5 minute time course using 10 mM Zn
T2 construct: expressed in transfected cells; host or cells: S. cerevisiae ZHY3 (zrt1::LEU2 zrt2::HIS3) with an Arabidopsis cDNA clone in pFL61
T2 sequence (Q9SLG3 26-339): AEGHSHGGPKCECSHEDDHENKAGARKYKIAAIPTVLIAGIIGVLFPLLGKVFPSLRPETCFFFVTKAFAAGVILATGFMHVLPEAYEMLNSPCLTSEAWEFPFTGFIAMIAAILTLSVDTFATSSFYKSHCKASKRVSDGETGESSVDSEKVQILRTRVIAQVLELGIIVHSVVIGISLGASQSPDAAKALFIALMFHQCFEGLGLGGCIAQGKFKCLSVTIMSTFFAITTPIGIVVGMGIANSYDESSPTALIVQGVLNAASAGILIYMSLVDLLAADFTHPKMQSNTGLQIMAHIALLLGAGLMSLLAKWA
Experimental: as §1

ZRT1 promoter = experiment: ZRT1-lacZ fusion β-galactosidase assay; format: cell-based, Saccharomyces cerevisiae; details: LZM-EDTA, 16 hours
Experimental: Zinc uptake assays were performed as described previously for iron uptake (Eide et al. (1992) J. Biol. Chem. 267:20774-20781) except that ^65ZnCl2 (Amersham) and LZM-EDTA were substituted for ^59FeCI3 and LIM-EDTA, respectively. Cells were incubated for 5 minutes in LZM-EDTA plus the indicated concentration of ^65Zn, collected on glass fiber filters (Schleicher and Schuell), washed with 10 ml ice-cold SSW (1 mM EDTA, 20 mM trisodium citrate, 1 mM KH2PO4, 1 mM CaCl2, 5 mM MgSO4, 1 mM NaCl pH 4.2), and cell-associated radioactivity was measured by liquid scintillation counting. Cells were starved for glucose by incubating them in LZM-EDTA prepared without glucose for one hour at 30° C. prior to assay. Michaelis-Menten kinetic values were determined using […] software (Intellikinetics, Princeton, N.J.). Stock solutions of the chloride salts of Co, Cu, Mg, Mn, and Ni were prepared in distilled water at a concentration of 100 mM. The nonradioactive ZnCl2 stock was prepared at 100 mM in 0.02 N HCl and the FeCl3 stock was prepared at 50 mM in 0.1 N HCl. The statistical significance of the differences of values relative to controls was determined with one-way analysis of variance (ANOVA) followed by a Dunnett multiple comparison test. β-galactosidase activity was assayed in cells harvested at an OD600 of 0.5-2.0 as described by Guarente (Guarente, L. (1983) Methods Enzymol. 101:181-191) and activity is expressed as the change in absorbance at 420 nm×1000 divided by (min×ml of culture used×OD600 of the culture). Cell-associated zinc was measured in parallel cultures supplemented with tracer amounts of ^65Zn (10 μM) and nonradioactive zinc to the indicated final concentration. Aliquots (0.5 ml) were filtered, washed with 10 ml ice-cold SSW, and radioactivity measured by liquid scintillation.
The effects of the zrt2 mutation on the regulation of the ZRT1 gene was also examined. […] Furthermore, cell-associated zinc levels are much lower in the zrt1 mutant grown in zinc-limiting conditions. At higher concentrations of extracellular zinc, however, these levels increased to the wild type levels. It was proposed that this accumulation was the result of zinc uptake by the low affinity system. To test this hypothesis and determine the effect of the zrt2 mutation on the pool of intracellular zinc that regulates ZRT1 gene expression, β-galactosidase activity from the ZRT1-lacZ fusion in wild type, zrt1, zrt2, and zrt1zrt2 mutant strains grown in media supplemented with a broad range of zinc concentrations was measured. […] These values are also plotted against the calculated free zinc concentration ([Zn]F). […]

[Zn+2] [zinc]
cell-associated zinc (zrt1zrt2 strain; 10 μM total zinc): 5±0.6 pmol/10^6 cells | cell-associated zinc (zrt1zrt2 strain; 1000 μM total zinc): 86±21 pmol/10^6 cells | Zn uptake rate (ZIP1): 191 fmol/min/10^6 cells | cell-associated zinc (zrt1 strain; 10 μM total zinc): 133±12 pmol/10^6 cells | cell-associated zinc (zrt1 strain; 1000 μM total zinc): 168±14 pmol/10^6 cells | Zn uptake rate (ZIP3): 134 fmol/min/10^6 cells | calculated free zinc [Zn]F at which β-galactosidase activity decreased to its minimal level (ZRT1 promoter; zrt1 mutant): ~0.12 µM | total zinc at which β-galactosidase activity decreased to its minimal level (ZRT1 promoter; zrt1 mutant): 10 µM | calculated free zinc [Zn]F at which ZRT1-lacZ expression was down-regulated (ZRT1 promoter; zrt1zrt2 mutant): ~2.4 µM | total zinc concentration at which ZRT1-lacZ expression was down-regulated (ZRT1 promoter; zrt1zrt2 mutant): ≥ 200 µM

From patent publication US6590140B1, “Metal-regulated transporters and uses therefor” (Trustees of Dartmouth College, priority 1996, dated 2003)
